Series [1] has as its system patients with light and moderate diastolic hypertension. Put plainly: Clinical trial study of Example 5 (compound preparation 5 mg lercanidipine + 20 mg losartan vs single drugs and amlodipine). Type of series: in vivo, human. The note with it: for Diastolic blood pressure Value changed / Systolic blood pressure Value changed: before treatment vs end of week 12; for Diastolic blood pressure Before dosing / Systolic blood pressure Before dosing: before treatment, mean ± SD; for Diastolic blood pressure After dosing / Systolic blood pressure After dosing: once daily. The protocol: After 14-20 days of washing stage, entering 14-30 days of introduction stage, during which single blinded placebos were taken. Blood pressures were measured in a return visit in every 7-10 days. Suitable patients were divided into treatment groups according to random principle.
1.3 Observation indicators and method: blood, pressures were measured as per the requirements of international standard. A settled physician would follow up once a week and visited from 9:00 to 11:00. Every time heart rate and sitting blood pressure were measured 3 times and the 2 greater values were taken to calculate the mean value.
(§1) 1.4 Laboratory examinations: electrocardiogram, blood and urine routine, liver and kidney function, blood sugar, blood lipid and blood electrolyte examinations were performed before and after overall patient trial.
(§2) 1.6 Data processing and statistical method: the measurement data were calculated as mean±standard variation. Paired t-test was used to compare the quantitative indicators before and after the 4 treatment patterns. Chi-square test was used to compare the difference before and after administration.

For series [2] the test system is unchanged. The series can be described thus: Clinical trial study of Example 6 (compound preparation 7.5 mg lercanidipine + 20 mg losartan vs single drugs). Format: in vivo, human. The note with it: for Diastolic blood pressure Value changed / Systolic blood pressure Value changed: before treatment vs end of week 12; for Diastolic blood pressure Before dosing / Systolic blood pressure Before dosing: before treatment, mean ± SD.
Text: 1.1 Selection of cases: patients aged from 18-75 years old with light and moderate diastolic hypertension (supine diastolic blood pressure 95-115 mmHg), excluding severe hypertension (diastolic blood pressure >115 mmHg), secondary hypertension, heart disease, myocardial infarction, shock, transient ischemic stroke within the past 3 months, sinus bradycardia or sinus tachycardia, hypovolemia, liver and kidney dysfunction and diabetes. After 14-20 days of washing stage, entering 14-30 days of introduction stage, during which single blinded placebos were taken. Blood pressures were measured in a return visit in every 7-10 days. Suitable patients were divided into treatment groups according to random principle.
1.2 Trial method: there were totally 359 patients enrolled, and 305 patients entered the introduction stage and 266 entered the assessment stage.
1.3 Observation indicators and method: blood pressures were measured as per the requirements of international standard. A settled physician would follow up once a week and visited from 9:00 to 11:00. Every time heart rate and sitting blood pressure were measured 3 times and the 2 greater values were taken to calculate the mean value.
as §1
1.5 Curative effect assessment: according to the regulations of The National Cardiovascular Epidemiology and Population Prevention report meeting summary in 1979: (1) markedly effective: diastolic blood pressure was decreased by ≧10 mmHg, and was decreased to normal (<90 mmHg) or decreased by more than 20 mmHg; (2) effective: diastolic blood pressure was decreased by 10-19 mmHg or was decreased by <10 mmHg, but reached normal; (3) failure: not reached above criteria.
as §2

Where a name gives a salt, the structure may show the parent alone.

Take `COC(=O)C1=C(C)NC(C)=C(C(=O)OC(C)(C)CN(C)CCC(c2ccccc2)c2ccccc2)C1c1cccc([N+](=O)[O-])c1` (stereo not shown) [lercanidipine hydrochloride]: the “cases occurring gastrointestinal tract symptoms” value in series [1] (12 weeks of treatment) is recorded as “two”; in series [2] (12 weeks of treatment), “one”. Also, the cases of dizziness entry in series [1] (12 weeks of treatment) and in series [2] (12 weeks of treatment) was “one” in each case. The “Diastolic blood pressure Value changed” value in series [1] is reported as 13 ± 8 mmHg; in series [2], 16 ± 6 mmHg. Besides, the “Systolic blood pressure Value changed” value in series [1] was found to be 19 ± 3 mmHg; in series [2], 19 ± 7 mmHg. Also, the “Diastolic blood pressure Before dosing” value was determined as 104 ± 9 mmHg in series [1] and 106 ± 8 mmHg in series [2]. Further, the “Systolic blood pressure Before dosing” value in series [1] is given as 152 ± 9 mmHg; in series [2] it was 156 ± 8 mmHg. The entries for the “Diastolic blood pressure After dosing” value in series [1] (end of week 12 of treatment) and in series [2] (end of week 12 of treatment) were 88 ± 7 mmHg and 89 ± 7 mmHg, respectively. Besides, the “Systolic blood pressure After dosing” value is recorded as 139 ± 8 mmHg in series [1] (end of week 12 of treatment) and 136 ± 7 mmHg in series [2] (end of week 12 of treatment). The “Effective rate (total effective rate for decreasing blood pressure)” value stood at 70.8% in series [1] (end of week 12 of treatment, criteria of b72, hydrochloride); 70.8% in series [1] (end of week 12 of treatment; criteria of b72; listed as 2), hydrochloride); 71.6% in series [2] (end of week 12 of treatment, criteria of b91, hydrochloride); 71.6% in series [2] (end of week 12 of treatment; criteria of b91; listed as 2), hydrochloride).

Regarding `CCCCc1nc(Cl)c(CO)n1Cc1ccc(-c2ccccc2-c2nn[nH]n2)cc1` [losartan], the “cases occurring gastrointestinal tract symptoms” value is listed as “four” in series [1] (12 weeks of treatment) and “two” in series [2] (12 weeks of treatment). For the same compound, the “cases of dry mouth” value in series [1] (12 weeks of treatment) and in series [2] (12 weeks of treatment) was “one” each time. For the same compound, the results for the “Diastolic blood pressure Value changed” value in series [1] and in series [2] were 11 ± 5 mmHg and 14 ± 5 mmHg, respectively. Further, the “Systolic blood pressure Value changed” value in series [1] came out at 15 ± 9 mmHg; in series [2] it was 17 ± 5 mmHg. The “Diastolic blood pressure Before dosing” value in series [1] came out at 100 ± 5 mmHg; in series [2] it was 102 ± 6 mmHg. Besides, the “Systolic blood pressure Before dosing” value is 152 ± 9 mmHg in series [1] and 152 ± 7 mmHg in series [2]. Besides, the “Diastolic blood pressure After dosing” value is recorded as 81 ± 9 mmHg in series [1] (end of week 12 of treatment) and 83 ± 8 mmHg in series [2] (end of week 12 of treatment). Besides, the “Systolic blood pressure After dosing” value in series [1] (end of week 12 of treatment) was found to be 138 ± 6 mmHg; in series [2] (end of week 12 of treatment) it was 139 ± 5 mmHg. The “Effective rate (total effective rate for decreasing blood pressure)” value worked out at 75.1% in series [1] (end of week 12 of treatment; criteria of b72; listed as 3)); 75.1% in series [1] (end of week 12 of treatment, criteria of b72, listed as lorsartan); 77.3% in series [2] (end of week 12 of treatment; criteria of b91; listed as 3)); 77.3% in series [2] (end of week 12 of treatment, criteria of b91, listed as lorsartan).

The record behind these values is patent publication US20150079183A1, “Lercanidipine Hydrochloride and Losartan Potassium Compound Preparation and Preparation Method Thereof” (Zhaoke Pharmaceutical (Hefei) Company Limited, priority 2012, published 2015).
